Laboratory results: patent publication US7700602B2, “Amino-5,5-diphenylimidazolone derivatives for the inhibition of β-secretase” (Wyeth LLC, priority 2004, dated 2010)
Like-named read-outs stand apart in the source and are kept apart here.

Assays:
human BACE1 = human BACE1 (Homo sapiens, UniProt P56817); assay: Fluorescent kinetic assay, inhibition of BACE1 (WABC-6 peptide substrate); type: biochemical;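 note: fluorescence monitored at 320 nm excitation and 420 nm emission every 40 s over 30 min, with the substrate cleavage rate taken from the linear slope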
human BACE2 = biological target: T1, human BACE2 (Homo sapiens, UniProt Q9Y5Z0); assay: Fluorescent Kinetic Assay for Human Recombinant BACE 2 (selectivity BACE1/BACE2); type: biochemical; details: selectivity BACE1 over BACE2; 1.5 nM human BACE2, 25 μM substrate, pH 4.5;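 note: cleavage rate from the linear slope of fluorescence (excitation 320 nm, emission 420 nm) recorded every 40 s over 30 min at room temperature, sodium acetate buffer with 0.05% CHAPS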
T1 sequence (Q9Y5Z0 63-518): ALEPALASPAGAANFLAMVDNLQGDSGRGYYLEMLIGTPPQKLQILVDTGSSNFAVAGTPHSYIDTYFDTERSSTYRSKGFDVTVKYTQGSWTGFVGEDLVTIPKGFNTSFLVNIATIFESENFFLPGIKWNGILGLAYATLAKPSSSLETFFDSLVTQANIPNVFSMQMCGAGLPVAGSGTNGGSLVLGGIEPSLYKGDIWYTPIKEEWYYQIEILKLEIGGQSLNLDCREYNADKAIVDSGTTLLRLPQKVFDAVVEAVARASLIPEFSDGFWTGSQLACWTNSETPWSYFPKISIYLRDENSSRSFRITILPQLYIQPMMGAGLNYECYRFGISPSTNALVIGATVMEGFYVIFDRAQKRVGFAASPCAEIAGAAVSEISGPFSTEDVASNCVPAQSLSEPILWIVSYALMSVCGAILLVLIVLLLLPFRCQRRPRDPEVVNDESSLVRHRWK

[1] = 10 nM enzyme, 25 μM substrate WABC-6, pH 4.5, room temperature, read-out: IC50 (μM) BACE1

human BACE1, sequence (P56817 46-501): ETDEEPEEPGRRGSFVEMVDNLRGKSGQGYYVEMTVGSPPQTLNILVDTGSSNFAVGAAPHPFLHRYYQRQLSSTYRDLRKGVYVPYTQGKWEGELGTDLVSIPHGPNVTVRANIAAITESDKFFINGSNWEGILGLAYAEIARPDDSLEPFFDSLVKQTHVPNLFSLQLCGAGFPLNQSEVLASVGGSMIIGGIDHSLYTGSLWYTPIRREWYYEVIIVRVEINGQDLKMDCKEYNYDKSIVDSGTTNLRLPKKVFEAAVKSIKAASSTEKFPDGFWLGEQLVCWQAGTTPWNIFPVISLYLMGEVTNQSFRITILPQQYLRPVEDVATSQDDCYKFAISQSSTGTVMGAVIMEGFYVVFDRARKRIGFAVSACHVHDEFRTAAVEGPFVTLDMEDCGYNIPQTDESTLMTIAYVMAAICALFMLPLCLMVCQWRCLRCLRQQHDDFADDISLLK

Row | SMILES | IC50 (human BACE1; [1]) [µM] | BACE1/BACE2 selectivity (human BACE2) | melting point [°C] | IC50 (human BACE1) [µM]
1 | CN1C(=O)C(c2cccc(-c3cccnc3)c2)(c2ccc(OC(F)(F)F)c(C(F)(F)F)c2)N=C1N (centres unmarked) [Example 26] | 0.01 to 0.1 | II (II = 10-100-fold selectivity) | 98 | 
2 | Cc1cc(C2(c3cccc(-c4cncnc4)c3)N=C(N)N(C)C2=O)ccc1O[C@H](C)c1ccccc1 (stereo partly drawn) [Example 131, 2-amino-3-methyl-5-{3-methyl-4-[(1R)-1-phenylethoxy]phenyl}-5-(3-pyrimidin-5-ylphenyl)-3,5-dihydro-4H-imidazol-4-one] | 0.01 to 0.1 |  | 112 to 114 | 
3 | CCCNC1=NC(c2cccc(-c3cncnc3)c2)(c2ccc(OCCC)c(C)c2)C(=O)N1C (centres unmarked) |  |  | 64 to 66 | 
4 | CCOc1cc(C2(c3cccc(-c4cccnc4)c3)N=C(N)N(C)C2=O)ccc1OC (centres unmarked) [Example 24] |  | II (II = 10-100-fold selectivity) |  | 0.01 to 0.1
5 | CN1C(=O)C(c2ccc(OC(F)(F)F)cc2)(c2cccc(-c3ncccn3)c2)N=C1N (centres unmarked) [Example 37, 2-Amino-3-methyl-5-(3-pyrimidin-2-ylphenyl)-5-[4-(trifluoromethoxy)phenyl]-3,5-dihydro-4H-imidazol-4-one] | 0.01 to 0.1 | III (III = <10-fold selectivity) |  | 
6 | COc1ccc([C@]2(c3ccc(F)c(-c4cncc(F)c4)c3)N=C(N)N(C)C2=O)cc1 [Example 142B, (5R)-2-Amino-5-[4-fluoro-3-(5-fluoropyridin-3-yl)phenyl]-5-(4-methoxyphenyl)-3-methyl-3,5-dihydro-4H-imidazol-4-one] | 0.01 to 0.1 | II (II = 10-100-fold selectivity) |  | 
7 | CCN1C(=O)C(c2ccc(OC(F)F)cc2)(c2ccc(F)c(-c3cncc(F)c3)c2)N=C1N (centres unmarked) [Example 128] | 0.11 to 1 | II (II = 10-100-fold selectivity) |  | 
8 | Cc1cc(C2(c3cccc(-c4cccnc4)c3)N=C(N)N(C)C2=O)ccc1O (centres unmarked) [Example 10] | 0.01 to 0.1 | II (II = 10-100-fold selectivity) |  | 
9 | CCOc1ccc(C2(c3cccc(-c4ccc(F)nc4)c3)N=C(N)N(C)C2=O)cc1OCC (centres unmarked) [Example 69] | 0.01 to 0.1 | III (III = <10-fold selectivity) |  | 
10 | COc1ccc([C@]2(c3ccc(F)c(-c4cncnc4)c3)N=C(N)N(C)C2=O)cc1C(F)(F)F [Example 107A, (5S)-2-Amino-5-(4-fluoro-3-pyrimidin-5-ylphenyl)-5-[4-methoxy-3-(trifluoromethyl)phenyl]-3-methyl-3,5-dihydro-4H-imidazol-4-one] | 0.01 to 0.1 | I (I = >100-fold selectivity) |  | 
11 | CN1C(=O)C(c2ccc(OC(F)F)cc2)(c2ccc(F)c(-c3ccc(F)nc3)c2)N=C1N (centres unmarked) [Example 88] | 0.01 to 0.1 | II (II = 10-100-fold selectivity) |  | 
12 | CCOc1ccc([C@]2(c3ccc(F)c(-c4cccnc4F)c3)N=C(N)N(C)C2=O)cc1OCC [Example 136A, (5S)-2-Amino-5-(3,4-diethoxyphenyl)-5-[4-fluoro-3-(2-fluoropyridin-3-yl)phenyl]-3-methyl-3,5-dihydro-4H-imidazol-4-one] | 0.01 to 0.1 | II (II = 10-100-fold selectivity) |  | 
13 | CN1C(=O)[C@@](c2ccc(OC(F)F)cc2)(c2cccc(-c3cc(F)cnc3F)c2)N=C1N [Example 137B, (5R)-2-Amino-5-[4-(difluoromethoxy)phenyl]-5-[3-(2,5-difluoropyridin-3-yl)phenyl]-3-methyl-3,5-dihydro-4H-imidazol-4-one] | 0.01 to 0.1 | II (II = 10-100-fold selectivity) |  | 
14 | CN1C(=O)C(c2ccc(OC(F)(F)F)cc2)(c2cccc(-c3cncnc3)c2F)N=C1N (centres unmarked) [Example 48] | > 1 | II (II = 10-100-fold selectivity) |  | 
15 | CN1C(=O)[C@](c2ccc(OCCF)cc2)(c2ccc(F)c(-c3cncnc3)c2)N=C1N [Example 139A, (5S)-2-Amino-5-[4-(2-fluoroethoxy)phenyl]-5-(4-fluoro-3-pyrimidin-5-ylphenyl)-3-methyl-3,5-dihydro-4H-imidazol-4-one] | 0.01 to 0.1 | I (I = >100-fold selectivity) |  | 
16 | CN1C(=O)C(c2ccc(OC(F)(F)F)c(F)c2)(c2ccc(F)c(-c3cnccc3F)c2)N=C1N (centres unmarked) [Example 78] | 0.01 to 0.1 | II (II = 10-100-fold selectivity) |  | 
17 | CN1C(=O)[C@](c2ccc(OC(F)F)cc2)(c2cccc(-c3ccc(F)nc3)c2)N=C1N [Example 135A, (5S)-2-Amino-5-[4-(difluoromethoxy)phenyl]-5-[3-(6-fluoropyridin-3-yl)phenyl]-3-methyl-3,5-dihydro-4H-imidazol-4-one] | > 1 | III (III = <10-fold selectivity) |  | 

Results, then the compound that gave them:

Row | IC50 (human BACE1; [1]) [µM] | BACE1/BACE2 selectivity (human BACE2) | melting point [°C] | IC50 (human BACE1) [µM] | SMILES
18 | 0.11 to 1 | I (I = >100-fold selectivity) |  |  | CN1C(=O)C(c2ccc(OC(F)(F)F)cc2)(c2cc(-c3cccnc3)ccc2F)N=C1N (centres unmarked) [Example 84]
19 | > 1 | III (III = <10-fold selectivity) |  |  | COc1ccc([C@@]2(c3ccc(F)c(-c4cncnc4)c3)N=C(N)N(C)C2=O)cc1C(F)(F)F [Example 107B, (5R)-2-Amino-5-(4-fluoro-3-pyrimidin-5-ylphenyl)-5-[4-methoxy-3-(trifluoromethyl)phenyl]-3-methyl-3,5-dihydro-4H-imidazol-4-one]
20 | 0.11 to 1 | III (III = <10-fold selectivity) |  |  | CN1C(=O)[C@@](c2ccc(OCCF)cc2)(c2ccc(F)c(-c3cncnc3)c2)N=C1N [Example 139B, (5R)-2-Amino-5-[4-(2-fluoroethoxy)phenyl]-5-(4-fluoro-3-pyrimidin-5-ylphenyl)-3-methyl-3,5-dihydro-4H-imidazol-4-one]
21 | 0.11 to 1 | III (III = <10-fold selectivity) |  |  | CN1C(=O)[C@](c2ccc(OC(F)F)cc2)(c2ccc(F)c(-c3ccc(F)nc3)c2)N=C1N [Example 134A, (5S)-2-Amino-5-[4-(difluoromethoxy)phenyl]-5-[4-fluoro-3-(6-fluoropyridin-3-yl)phenyl]-3-methyl-3,5-dihydro-4H-imidazol-4-one]
22 | 0.01 to 0.1 | II (II = 10-100-fold selectivity) |  |  | CN1C(=O)C(c2ccc(OC(F)F)cc2)(c2cccc(-c3cc(F)cnc3F)c2)N=C1N (centres unmarked) [Example 91]
23 | 0.11 to 1 | I (I = >100-fold selectivity) |  |  | NC1=NC(c2ccc(OC(F)(F)F)cc2)(c2ccc(F)c(-c3cccnc3F)c2)C(=O)N1CCF (centres unmarked) [Example 127]
24 | > 1 | III (III = <10-fold selectivity) |  |  | CN1C(=O)[C@](c2ccc(OC(F)F)cc2)(c2cccc(-c3cc(F)cnc3F)c2)N=C1N [Example 137A, (5S)-2-Amino-5-[4-(difluoromethoxy)phenyl]-5-[3-(2,5-difluoropyridin-3-yl)phenyl]-3-methyl-3,5-dihydro-4H-imidazol-4-one]
25 | > 1 | III (III = <10-fold selectivity) |  |  | COc1ccc([C@@]2(c3ccc(F)c(-c4cnccc4F)c3)N=C(N)N(C)C2=O)cc1 [Example 143A, (5S)-2-Amino-5-[4-fluoro-3-(4-fluoropyridin-3-yl)phenyl]-5-(4-methoxyphenyl)-3-methyl-3,5-dihydro-4H-imidazol-4-one]
26 | 0.01 to 0.1 | II (II = 10-100-fold selectivity) |  |  | CN1C(=O)C(c2ccc(OC(F)F)cc2)(c2cccc(-c3ccc(F)nc3)c2)N=C1N (centres unmarked) [Example 90]
27 | 0.11 to 1 | III (III = <10-fold selectivity) |  |  | CCOc1ccc(C2(c3cccc(-c4cccnc4OC)c3)N=C(N)N(C)C2=O)cc1OCC (centres unmarked) [Example 68]
28 | 0.01 to 0.1 | II (II = 10-100-fold selectivity) |  |  | CN1C(=O)C(c2ccc(OC(F)(F)F)cc2)(c2ccc(F)c(-c3cccnc3F)c2)N=C1N (centres unmarked) [Example 74]
29 | 0.01 to 0.1 | II (II = 10-100-fold selectivity) |  |  | CN1C(=O)C(c2ccc(OC(F)(F)F)c(F)c2)(c2ccc(F)c(-c3cccnc3F)c2)N=C1N (centres unmarked) [Example 43]
30 | 0.01 to 0.1 | II (II = 10-100-fold selectivity) |  |  | COc1ccc(C2(c3ccc(F)c(-c4ccc(F)nc4)c3)N=C(N)N(C)C2=O)cc1C(F)(F)F (centres unmarked) [Example 57]
31 | 0.01 to 0.1 | II (II = 10-100-fold selectivity) |  |  | COc1ccc(C2(c3cccc(-c4cccnc4F)c3)N=C(N)N(C)C2=O)cc1C (centres unmarked) [Example 59]
32 | 0.11 to 1 | II (II = 10-100-fold selectivity) |  |  | CN1C(=O)C(c2ccc(OC(F)(F)F)cc2)(c2cccc(-c3ccc(F)nc3)c2)N=C1N (centres unmarked) [Example 65]
33 | 0.11 to 1 | III (III = <10-fold selectivity) |  |  | CN1C(=O)[C@](c2ccc(OC(F)F)cc2)(c2ccc(F)c(-c3cccnc3F)c2)N=C1N [Example 133A, (5S)-2-Amino-5-[4-(difluoromethoxy)phenyl]-5-[4-fluoro-3-(2-fluoropyridin-3-yl)phenyl]-3-methyl-3,5-dihydro-4H-imidazol-4-one]
34 | 0.01 to 0.1 | II (II = 10-100-fold selectivity) |  |  | CN1C(=O)[C@@](c2ccc(OC(F)F)cc2)(c2ccc(F)c(-c3ccc(F)nc3)c2)N=C1N [Example 134B, (5R)-2-Amino-5-[4-(difluoromethoxy)phenyl]-5-[4-fluoro-3-(6-fluoropyridin-3-yl)phenyl]-3-methyl-3,5-dihydro-4H-imidazol-4-one]
